Source: patent publication US7807845B2, “Resistance-repellent retroviral protease inhibitors” (priority 2004, dated 2010)
pIC50, pKi: −log10 of the molar value.

Assays:
[1] = test system: HIVmutant10 (16 mutations); experiment: Antiviral assay in MT-4 cells (MTT), mutant 10 virus; assay type: cell-based, HIV; details: Human immunodeficiency virus 1, MT4, 120 h, read-out: IC50 Mutant 10
Procedure: (§1) MT-4 cells were obtained from the AIDS Research and Reference Reagent Program (ARRRP, Division of AIDS, NIAID, NIH: MT-4 from Dr. D. Richman). Cells were propagated in RPMI 1640 supplemented with 10% fetal bovine serum, 50U of penicillin and 50 μg of streptomycin per ml (Invitrogen, Carlsbad Calif.). The following HIV viruses were used for testing of antiviral potency of compounds: WT=HIVHXB2; recombinant HIVHXB2 virus from drug resistant patient isolates; HIVmutant10 (16 mutations); HIVmutant8 (14 mutations); HIVmutant9 (10 mutations).
(§2) The potency of test compound was determined as previously described (ref 1-3) with minor modifications. MT-4 cells (1.5×10^4/ml) were exposed to 200 50 % tissue culture infective doses (TCID50) of viruses in the presence of various concentrations of test compound in 96 well microtiter plates and incubated at 37° C. for 5 days. 3-(4,5-dimethylthiazol-2-yl)-2,5-diphenytetrazolium bromide (MTT) solution was added to a final concentration of 0.75 mg/ml, and plates were incubated 1 hour. After incubation cells were dissolved in isopropanol/Triton-X 100/HCl (1000:50:25) solution. Absorbance was monitored in a microplate reader (Spectramax, Molecular Devices) at 540 nm and 690 nm. Cytotoxicity of compounds was tested in a similar assay in the absence of virus.

[2] = test system: HIVmutant8 (14 mutations); experiment: Antiviral assay in MT-4 cells (MTT), mutant 8 virus; assay type: cell-based, HIV; details: Human immunodeficiency virus 1, MT4, 120 h, read-out: IC50 Mutant 8
Procedure: as §1, §2

[3] = target: mutant HIV PR (Mutant 10) (Human immunodeficiency virus type 1 group M subtype B, UniProt P04585); experiment: HIV PR inhibition assay, Mutant 10; assay type: biochemical; details: read-out: Ki Mutant 10; recombinant mutant HIV PR, fluorogenic substrate, pH 6.5
Procedure: (§3) Expression and purification of WT and mutant HIV PR. Recombinant wild type and mutant HIV PRs were expressed using pET21 vector (Novagen) in E. coli cells, and purified and refolded as described previously (Gulnik et al, 1995). The cells were resuspended in 50 mM tris-HCl buffer, pH 8.0, 25 mM NaCl, 0.2% β-mercaptoethanol (buffer A), sonicated and centrifuged. Inclusion bodies were washed first with buffer A, then with buffer A containing respectively 0.1% Triton X-100, 1 M NaCl, 1 M urea, and finally with buffer A alone. Purified inclusion bodies were solubilized by addition of buffer A containing 8 M urea at room temperature. The solution was clarified by centrifugation and loaded onto 2.6×9.5 cm Q-Sepharose column. Flow-through fractions were collected and dialyzed against 3 changes of refolding buffer, which consists of 25 mM Na-phosphate, pH 7.0, 25 mM NaCl, 0.2% β-mercaptoethanol and 10% glycerol, aliquoted and stored at −80° C.
(§4) Inhibition constants were determined using the fluorogenic substrate ArgGlu(EDANS)[…]DABCYL)Arg (Amichem, USA). HIV Protease was preincubated for 0.5-1 min at ambient temperature on a 96 well plate with different concentrations of inhibitor in 0.05 M sodium phosphate buffer, pH 6.5, containing 20 mM NaCl, 2 mM DTT and 0.01% Tween-20. The reaction was initiated by the addition of substrate. Final enzyme concentration was 2-5 nM for WT and 2-30 nM for mutants. Substrate concentration was 20 uM and DMSO concentration 2%. The increase in fluorescence intensity at the emission maximum of 520 nm (excitation wavelength 340 nm, cut-off filter 495 nm) was monitored as a function of time using a Spectramax Gemini fluorescence plate reader (Molecular Devices, CA USA). The initial rate of hydrolysis was calculated by first-degree polynomial fit using SoftMAX operating software. Data were fitted to the Michaelis-Menten equation for competitive inhibitors. For tight-binding inhibitors the data were fitted by nonlinear regression analysis to the equation V=V0/2Et({[Ki(1+S/Km)+It−Et]^2+4Ki(1+S/Km)Et}^1/2−[Ki(1+S/Km)+It−Et]) (Williams and Morrison, 1979) with the program GraFit, version 5 (Erithacus Software Limited, UK), where V and V0 are initial velocities with and without inhibitor, Km is the Michaelis-Menten constant and S, Et and It are the concentrations of substrate, active enzyme and inhibitor respectively.

mutant HIV PR (Mutant 9) = mutant HIV PR (Mutant 9) (Human immunodeficiency virus type 1 group M subtype B, UniProt P04585); experiment: HIV PR inhibition assay, Mutant 9; assay type: biochemical; details: read-out: Ki Mutant 9; recombinant mutant HIV PR, fluorogenic substrate, pH 6.5
Procedure: as §3, §4

wild type HIV PR = target: T1, wild type HIV PR (Human immunodeficiency virus type 1 group M subtype B, UniProt P04585); experiment: HIV PR inhibition assay, wild type; assay type: biochemical
T1 construct: Recombinant wild type and mutant HIV PRs were expressed using pET21 vector (Novagen) in E. coli cells; made in house
Procedure: as §3, §4

[4] = test system: HIVmutant9 (10 mutations); experiment: Antiviral assay in MT-4 cells (MTT), mutant 9 virus; assay type: cell-based, HIV; details: Human immunodeficiency virus 1, MT4, 120 h, read-out: IC50 Mutant 9
Procedure: as §1, §2

WT=HIVHXB2 = experiment: Antiviral assay in MT-4 cells (MTT), WT virus; assay type: cell-based, HIV; details: Human immunodeficiency virus 1, MT4, 120 h, HIVHXB2, 5 days
Procedure: as §1, §2

mutant HIV PR (Mutant 8) = mutant HIV PR (Mutant 8) (Human immunodeficiency virus type 1 group M subtype B, UniProt P04585); experiment: HIV PR inhibition assay, Mutant 8; assay type: biochemical; details: read-out: Ki Mutant 8; recombinant mutant HIV PR, fluorogenic substrate, pH 6.5
Procedure: as §3, §4

SMILES: CC(C)CN(C=C1C(=O)Nc2ccc(S(=O)(=O)N(CC(C)C)CC(O)C(Cc3ccccc3)NC(=O)OC3COC4OCCC34)cc21)CC(C)C (stereo not drawn) [Compound 113]
- pIC50 [1]: 7.05
- pIC50 [2]: 7.47
- pKi [3]: 8.54
- pKi (mutant HIV PR (Mutant 9)): 9.68
- pKi (wild type HIV PR): > 10.00
- pIC50 [4]: 7.64
- pIC50 (WT=HIVHXB2): 8.10
- pKi (mutant HIV PR (Mutant 8)): > 9.52

SMILES: CC(C)CN(CC(O)C(Cc1ccccc1)NC(=O)OC1COC2OCCC12)S(=O)(=O)c1ccc2c(c1)C(=CNC1CCC1)C(=O)N2 (stereo not drawn) [Compound 114]
- pIC50 [1]: 6.94
- pIC50 [2]: 7.52
- pKi [3]: 8.92
- pKi (mutant HIV PR (Mutant 9)): 9.82
- pKi (wild type HIV PR): > 10.00
- pIC50 [4]: 7.51
- pIC50 (WT=HIVHXB2): 7.77
- pKi (mutant HIV PR (Mutant 8)): > 9.52

SMILES: C=CCN(C=C1C(=O)Nc2ccc(S(=O)(=O)N(CC(C)C)CC(O)C(Cc3ccccc3)NC(=O)OC3COC4OCCC34)cc21)C1CCCC1 (stereo not drawn) [Compound 116]
- pIC50 [1]: 6.82
- pIC50 [2]: 7.30
- pKi [3]: > 9.00
- pKi (mutant HIV PR (Mutant 9)): > 10.00
- pKi (wild type HIV PR): > 10.00
- pIC50 [4]: 7.70
- pIC50 (WT=HIVHXB2): 7.82
- pKi (mutant HIV PR (Mutant 8)): > 9.52

SMILES: CCCCN(C=C1C(=O)Nc2ccc(S(=O)(=O)N(CC(C)C)CC(O)C(Cc3ccccc3)NC(=O)OC3COC4OCCC34)cc21)CC (stereo not drawn) [Compound 118]
- pIC50 [1]: 7.22
- pIC50 [2]: 7.40
- pKi [3]: 8.72
- pKi (mutant HIV PR (Mutant 9)): > 10.00
- pKi (wild type HIV PR): > 10.00
- pIC50 [4]: 7.82
- pIC50 (WT=HIVHXB2): 7.89
- pKi (mutant HIV PR (Mutant 8)): > 9.52

SMILES: CC(C)CN(CC(O)C(Cc1ccccc1)NC(=O)OC1COC2OCCC12)S(=O)(=O)c1ccc2c(c1)C(=CNCC(F)(F)C(F)(F)C(F)(F)F)C(=O)N2 (stereo not drawn) [Compound 125]
- pIC50 [1]: 7.41
- pIC50 [2]: 7.43
- pKi [3]: 8.92
- pKi (mutant HIV PR (Mutant 9)): 9.77
- pKi (wild type HIV PR): > 10.00
- pIC50 [4]: 7.62
- pIC50 (WT=HIVHXB2): 7.85
- pKi (mutant HIV PR (Mutant 8)): > 9.52

SMILES: CCOC(=O)C(NC=C1C(=O)Nc2ccc(S(=O)(=O)N(CC(C)C)CC(O)C(Cc3ccccc3)NC(=O)OC3COC4OCCC34)cc21)C(C)C (stereo not drawn) [Compound 133]
- pIC50 [1]: 7.57
- pIC50 [2]: 7.72
- pKi [3]: 8.51
- pKi (mutant HIV PR (Mutant 9)): 9.40
- pKi (wild type HIV PR): 9.85
- pIC50 [4]: 7.80
- pIC50 (WT=HIVHXB2): 7.77
- pKi (mutant HIV PR (Mutant 8)): > 9.52
